# Laboratory results taken from patent US9194872B2, “Potentiation of nanopharyngeal cancer radiotherapy by inhibitors of leukemia inhibitory factor” (Chang Gung University, priority 2013, dated 2015).
# B1: soluble leukemia inhibitory factor receptor: non-transmembrane protein (soluble receptor) that can bind leukemia inhibitory factor (protein, UniProt P42702 45-833, looked up)
# extracellular domain: QKKGAPHDLKCVTNNLQVWNCSWKAPSGTGRGTDYEVCIENRSRSCYQLEKTSIKIPALSHGDYEITINSLHDFGSSTSKFTLNEQNVSLIPDTPEILNLSADFSTSTLYLKWNDRGSVFPHRSNVIWEIKVLRKESMELVKLVTHNTTLNGKDTLHHWSWASDMPLECAIHFVEIRCYIDNLHFSGLEEWSDWSPVKNISWIPDSQTKVFPQDKVILVGSDITFCCVSQEKVLSALIGHTNCPLIHLDGENVAIKIRNISVSASSGTNVVFTTEDNIFGTVIFAGYPPDTPQQLNCETHDLKEIICSWNPGRVTALVGPRATSYTLVESFSGKYVRLKRAEAPTNESYQLLFQMLPNQEIYNFTLNAHNPLGRSQSTILVNITEKVYPHTPTSFKVKDINSTAVKLSWHLPGNFAKINFLCEIEIKKSNSVQEQRNVTIKGVENSSYLVALDKLNPYTLYTFRIRCSTETFWKWSKWSNKKQHLTTEASPSKGPDTWREWSSDGKNLIIYWKPLPINEANGKILSYNVSCSSDEETQSLSEIPDPQHKAEIRLDKNDYIISVVAKNSVGSSPPSKIASMEIPNDDLKIEQVVGMGKGILLTWHYDPNMTCDYVIKWCNSSRSEPCLMDWRKVPSNSTETVIESDEFRPGIRYNFFLYGCRNQGYQLLRSMIGYIEELAPIVAPNFTVEDTSADSILVKWEDIPVEELRGFLRGYLFYFGKGERDTSKMRVLESGRSDIKVKNITDISQKTLRIADLQGKTSYHLVLRAYTDGGVGPEKSMYVVTKENS
# modifications: extracellular domain
# Key:
# CNE1 cells = experiment: Resistance of nasopharyngeal cancer cell to radiation in various doses (xCelligence); type: cell-based; conditions: LIF 10 ng/ml; for IC50 value of the radiation for the treated cells: FIG. 4B
# Procedure: Firstly, 6×10^3 CNE1 cells were seeded. After cultivated at 37° C. overnight, the seeded cells were treated with PBS and leukemia inhibitory factor (10 ng/ml), and then radiation in various doses were emitted to the treated cells. Finally, an xCelligence real time cell analyzer was used to detect the cell growth at a certain time point after this emission.
# [1] = system: TW06 cell transfected with firefly luciferase 2 reporter gene; experiment: Tumor growth of mouse with intratumoral injection (in vivo imaging system); parameters: species or system NOD/SCID mouse; conditions: twice per week, 4 weeks, LIF 150-200 ng, sLIFR 1-2 μg, compared with PBS, FIGS. 3B, 3C
# Procedure: In addition, a TW06 cell transfected with firefly luciferase 2 reporter gene was subcutaneously injected into the thigh of a 7-week-old NOD/SCID (non-obese diabetic/severe-combined immunodeficient) mouse. Until the tumor on the mouse's thigh was grown to a volume of 50 mm^3, PBS, leukemia inhibitory factor (150-200 ng, twice per week, 4 weeks), or a soluble leukemia inhibitory factor receptor (1-2 μg, twice per week, 4 weeks) was intratumorally injected into the mouse. Finally, the mouse's tumor was observed, and its activity and volume were detected by an in vivo imaging system at a certain time point after the injection.
# [2] = system: TW06 cell transfected with firefly luciferase 2 reporter gene; experiment: Tumor growth of mouse with intratumoral injection and radiation in 7 Gy; type: in vivo, NOD/SCID mouse; conditions: twice per week, 4 weeks, LIF 150-200 ng, sLIFR 1-2 μg, radiation 7 Gy following first injection, FIGS. 5A, 5B
# Procedure: A TW06 cell transfected with firefly luciferase 2 reporter gene was subcutaneously injected into the thigh of a 7-week-old NOD/SCID mouse. Until the tumor on the thigh was grown to a volume of 60-100 mm^3, PBS, leukemia inhibitory factor (150-200 ng, twice per week, 4 weeks), or a soluble leukemia inhibitory factor receptor (1-2 μg, twice per week, 4 weeks) was intratumorally injected into the mouse, and then radiation in a dose of 7 Gy were emitted to the mouse following the first injection. Finally, the mouse's tumor was observed, and its activity and volume were detected by an in vivo imaging system at a certain time point after the emission.
# [3] = system: nasopharyngeal cancer cell; experiment: Caspase3/7 positive cells after substance treatment and radiation in 4 Gy; type: cell-based; conditions: radiation 4 Gy; 96th hour after emission; LIF versus sLIFR treatment; FIG. 4D
# TW06 cells = experiment: Growth of nasopharyngeal cancer cell in vitro (xCelligence real time cell analyzer); type: cell-based; conditions: sLIFR 1 μg/ml, LIF 10 ng/ml, compared among PBS, sLIFR plus LIF, FIG. 3A
# Procedure: 6×10^3 TW06 cells were seeded, and then cultivated at 37° C. overnight. These cells were treated with PBS, a soluble leukemia inhibitory factor receptor (1 μg/ml), leukemia inhibitory factor (10 ng/ml), or a soluble leukemia inhibitory factor receptor plus leukemia inhibitory factor. After which, an xCelligence real time cell analyzer (Roche Applied Science) was used to detect the cell growth at a certain time point after this treatment.
# CNE1 cells or TW06 cells = experiment: Cell survival after substance treatment and radiation in 4 Gy (xCelligence); type: cell-based; conditions: radiation 4 Gy, sLIFR 1 μg/ml, LIF 10 ng/ml, FIG. 4C
# Procedure: In another aspect, 6×10^3 CNE1 cells or TW06 cells were seeded, and then cultivated at 37° C. overnight. The cultivated cells were treated with PBS, a soluble leukemia inhibitory factor receptor (1 μg/ml), leukemia inhibitory factor (10 ng/ml), or leukemia inhibitory factor plus a soluble leukemia inhibitory factor receptor. After which, radiation in 4 Gy were emitted to the treated cells. Finally, an xCelligence real time cell analyzer was used to detect the cell survival at a certain time point after this emission.
# [4] = system: ATM, p53, γH2AX, NBS1 or CDC25C; experiment: Western blotting of apoptosis-related and DNA damage-related proteins after radiation in 4 Gy; type: cell-based; conditions: TW06 and CNE1 cells; radiation 4 Gy; 10th minute following emission; sLIFR versus LIF; FIGS. 4E, 4F
Molecule,IC50 value of the radiation for the treated cells (CNE1 cells; 48th hour after radiation emission (PBS 1.5 Gy)) [Gy],IC50 value of the radiation for the treated cells (CNE1 cells; 55th hour after radiation emission (PBS 1.3 Gy)) [Gy],"growth of cells with radiation emission (CNE1 cells; radiation in various doses, versus PBS, FIG. 4A)",tumor volume of the mouse [1],tumor volume of the mouse with radiation emission [2],Caspase3/7 expression level [3],growth of cells (TW06 cells),growth of cells with radiation emission (CNE1 cells or TW06 cells),activation/phosphorylation of apoptosis-related and DNA damage-related proteins [4]
leukemia inhibitory factor: a cytokine belonging to the interleukin-6 family and mediating cell growth through inhibition of cell differentiation,3.7,5.8,more obvious than that with PBS treatment and radiation emission,the biggest,the biggest,low Caspase3/7 expression level,,,
B1,,,,the smallest,the smallest,,the most unobvious,the most unobvious,activated/phosphorylated more strongly
